What was measured:
[1] = system: human non-small cell lung cancer NCI-H1975; experiment: Biological Example 10: in vivo xenograft model of human non-small cell lung cancer NCI-H1975; parameters: species or system Balb/c-nu nude mice; details: nude mice; for Final body weight change (%) / Maximum body weight change (%) / Relative volume RTV (x±S.D.) / T/C (%) / Tumor inhibition rate (%) / Tumor weight (g, x±S.D.): 0.4 mg/kg i.v. qw×2; for Body weight (g, x±S.D.) End 24d: 0.4 mg/kg i.v. qw×2, End 24d; for Body weight (g, x±S.D.) Start: 0.4 mg/kg i.v. qw×2, Start
[2] = system: BxPC-3 (human pancreatic cancer in situ); experiment: In vitro inhibitory effect against human tumor cells (MTT or SRB); format: cell-based; details: BXPC-3, 72 h, BxPC-3, test method printed MTT (head: SRB), 3 days
Description: (§1) Cells were cultured with 5% CO2 at 37°C and saturated humidity until they reached a logarithmic growth phase (usually adherent cells were nearly fully confluent). After removing adherent cells by trypsin/EDTA digestion, the cells were collected for subsequent experiments.
(§2) The cells were inoculated into a 96-well cell culture plate (hereinafter referred to as the 96-well plate) based on the cell count shown in Table 2, cultured overnight to achieve cell adherence, and then, after different concentrations of the test compound were added, further cultured for a total of 3 days. Finally, the total cell protein in the assay wells was assayed by SRB, or the cell viability was assessed by MTT:
(§3) 2.1 Assaying total cell protein by SRB: the modification is based on the method in the literature (V. Vichai and K. Kirtikara. Sulforhodamine B colorimetric assay for cytotoxicity screening. Nature Protocols. 2006, 1: 1112-1116). Specific method: the culture medium was pipetted out from the wells, the cells were fixed with 10% trichloroacetic acid for more than 1 h, and trichloroacetic acid was removed; the cells were washed with H2O, and stained with 0.4% SRB for 15-30 min; after excess SRB was removed, the cells were washed with 1% acetic acid; 100 µl of 10 mM tris(trihydroxymethylaminomethane) was added to dissolve the protein-bound SRB, followed by assay at a wavelength of 570 nm.
(§4) 2.2 Assaying cell viability by MTT: the modification is based on the method in the literature (J. Carmichael, W. DeGraff, A. Gazdar et al., Evaluation of a tetrazolium-based semiautomated colorimetric assay: assessment of chemosensitivity testing. Cancer Research. 1987, 47: 936-942). Specific method: For well-adherent cells: the medium was pipetted out, 100 µL of a basal medium containing 0.5 mg/mL MTT (medium free of fetal bovine serum (FBS) and other additives) was added to each well, and culture was continued for additional 3 h. The MTT-containing basal medium was pipetted out, and 100 µL of DMSO was added to each well to dissolve formazan, followed by assay at a wavelength of 490 nm.
(§5) For poorly-adherent cells: MTT solution was directly added to a concentration of 0.5 mg/mL, culture was continued for additional 3 h, and an equal volume of triple solvent was added to the system to dissolve formazan, followed by assay at a wavelength of 570 nm.
(§6) 2.3: 1-2 mg of β-glucuronidase was weighed, and dissolved in PBS to prepare 2 mg/mL stock solution. Prior to use, the stock solution was diluted with a complete medium to prepare 12.5 µg/mL enzyme working solution. For assay wells requiring the enzyme, 80 µL of the enzyme working solution was added, with the β-glucuronidase at a concentration of 1 µg/well; and for assay wells not requiring the enzyme, 80 µL of the complete medium was added.
(§7) 1-3 mg of the test compound was weighed, and dissolved in DMSO to prepare 20 mM stock solution. The stock solution was diluted in a 3-fold gradient with DMSO, then diluted 100-fold with RPMI1640 basal medium to obtain 10× working solutions, with a total of 8 concentrations. 20 µL of the 10× working solutions were add to the assay wells, with the final volume of each well of 200 µL, and with the DMSO at a concentration of 0.1%.
(§8) 2.4 Calculation of inhibitory activity of compound: the experiment includes a compound test group, a compound-free positive solvent control group (PC), and a negative solvent control group (NC) without cells and the compound. Inhibition rate = [1−(testvalue−NCmean)/(PCmean−NCmean)] × 100% [formula]
(§9) The mean and SD of the inhibition rate were obtained from replicate assay wells. A curve was plotted with the compound concentrations distributed in a logarithmic form as the abscissa and with the mean inhibition rates as the ordinate, and was fitted with a 4-parameter logistic equation. The compound concentration corresponding to 50% inhibition rate on the curve is the IC50 value. Table 2: Culture medium formulation and cell inoculation concentration for human tumor cell lines

[3] = system: human ovarian cancer SK-OV-3; experiment: Biological Example 5: in vivo xenograft model of human ovarian cancer SK-OV-3; parameters: species or system Balb/c-nu nude mice; details: SK-OV-3 xenograft, nude mice, 0.8 mg/kg i.v. qw×3
[4] = system: SK-OV-3 (human ovarian cancer); experiment: In vitro inhibitory effect against human tumor cells (MTT); format: cell-based; details: SK-OV-3, 72 h, SK-OV-3, MTT, 3 days
Description: as §1, §2, §4, §5, §6, §7, §8, §9

[5] = system: Fadu (human pharyngeal squamous cell carcinoma); experiment: as above; format: cell-based; details: 72 h, 3 days
Description: as §1, §2, §4, §5, §6, §7, §8, §9

[6] = system: NCI-H1975 (human non-small cell lung cancer); experiment: as above; format: cell-based; details: NCI-H1975, 72 h, 3 days
Description: as §1, §2, §4, §5, §6, §7, §8, §9

[7] = system: HCT116 (human colorectal cancer); experiment: as above; format: cell-based; details: HCT-116, 72 h, 3 days
Description: as §1, §2, §4, §5, §6, §7, §8, §9

[8] = system: 22RV1 (human prostate cancer); experiment: In vitro inhibitory effect against human tumor cells (SRB); format: cell-based; details: 22Rv1, 72 h, 22RV1, SRB, 3 days
Description: as §1, §2, §3, §6, §7, §8, §9

[9] = system: A375 (human malignant melanoma); experiment: as above; format: cell-based; details: A-375, 72 h, 3 days
Description: as §1, §2, §3, §6, §7, §8, §9

[10] = system: HepG2 (human liver cancer cell); experiment: as above; format: cell-based; details: HepG2, 72 h, 3 days
Description: as §1, §2, §3, §6, §7, §8, §9

[11] = system: human non-small cell lung cancer NCI-H1975; experiment: Biological Example 7: in vivo xenograft model of human non-small cell lung cancer NCI-H1975; parameters: species or system Balb/c-nu nude mice; details: nude mice; for Final body weight change (%) / Maximum body weight change (%) / Relative volume RTV (x±S.D.) / T/C (%) / Tumor inhibition rate (%) / Tumor weight (g, x±S.D.): 0.8 mg/kg i.v. qw×3; for Body weight (g, x±S.D.) End: 0.8 mg/kg i.v. qw×3, End; for Body weight (g, x±S.D.) Start: 0.8 mg/kg i.v. qw×3, Start
[12] = With addition of βGU (1 µg/well)

SMILES	IC50 [2, 12] [nM]	IC50 ([2]; βGU-free) [nM]	Final body weight change (%) [3] [%]	Maximum body weight change (%) [3]	Relative volume RTV (x±S.D.) [3]	T/C (%) [3] [%]	Tumor inhibition rate (%) [3] [%]	Tumor weight (g, x±S.D.) [3] [g]	Body weight (g, x±S.D.) End [3] [g]	Body weight (g, x±S.D.) Start [3] [g]	IC50 [4, 12] [nM]	IC50 ([4]; βGU-free) [nM]	IC50 [5, 12] [nM]	IC50 ([5]; βGU-free) [nM]	IC50 [6, 12] [nM]	IC50 ([6]; βGU-free) [nM]	IC50 [7, 12] [nM]	IC50 ([7]; βGU-free) [nM]	IC50 [8, 12] [nM]	IC50 ([8]; βGU-free) [nM]	further results
CC[C@H](C)[C@@H]([C@@H](CC(=O)N1CCC[C@H]1[C@H](OC)[C@@H](C)C(=O)N[C@H](C)[C@@H](O)c1ccccc1)OC)N(C)C(=O)[C@@H](NC(=O)[C@H](C(C)C)[N+](C)(C)Cc1ccc(O[C@@H]2O[C@H](C(=O)[O-])[C@@H](O)[C@H](O)[C@H]2O)cc1OCc1cn(CCCOCC(=O)Nc2ccc(-c3ccc(/N=N/c4ccc5c(S(=O)(=O)[O-])cc(S(=O)(=O)[O-])c(N)c5c4O)c(C)c3)cc2C)nn1)C(C)C.[Na+].[Na+] [Example compound 10]	0.71	29	4.3	4.4, d18%	0.37±0.73	3.2	97.9	0.035 ± 0.077	24.7 ± 0.9	23.7 ± 1.1	2.7	74	0.64	14	1.9	50	3.4	87	4.4	94	Final body weight change (%) [1]: 4.6%; Maximum body weight change (%) [1]: 4.6, d28%; Relative volume RTV (x±S.D.) [1]: 0.26±0.02; T/C (%) [1]: 5.2%; Tumor inhibition rate (%) [1]: 95.7%; Tumor weight (g, x±S.D.) [1]: 0.047 ± 0.020 g; Body weight (g, x±S.D.) End 24d [1]: 22.9 ± 0.8 g; Body weight (g, x±S.D.) Start [1]: 21.9 ± 1.3 g; IC50 [9, 12]: 1.4 nM; IC50 ([9]; βGU-free): 33 nM; IC50 [10, 12]: 4.1 nM; IC50 ([10]; βGU-free): 93 nM; Final body weight change (%) [11]: 10.2%; Maximum body weight change (%) [11]: 10.2, d21%; Relative volume RTV (x±S.D.) [11]: 0.66±0.23; T/C (%) [11]: 4.6%; Tumor inhibition rate (%) [11]: 97.7%; Tumor weight (g, x±S.D.) [11]: 0.041 ± 0.022 g; Body weight (g, x±S.D.) End [11]: 26.0 ± 1.0 g; Body weight (g, x±S.D.) Start [11]: 23.7 ± 1.3 g
CC[C@H](C)[C@@H]([C@@H](CC(=O)N1CCC[C@H]1[C@H](OC)[C@@H](C)C(=O)N[C@H](C)[C@@H](O)c1ccccc1)OC)N(C)C(=O)[C@@H](NC(=O)[C@H](C(C)C)[N+](C)(C)Cc1ccc(O[C@@H]2O[C@H](C(=O)[O-])[C@@H](O)[C@H](O)[C@H]2O)cc1OCc1cn(CCOCCC(=O)Nc2ccc(-c3ccc(/N=N/c4ccc5c(S(=O)(=O)[O-])cc(S(=O)(=O)[O-])c(N)c5c4O)c(C)c3)cc2C)nn1)C(C)C.[Na+].[Na+] [Example compound 9]	0.86	28	5.3	5.3, d21%	0.05±0.03	0.4	99.9	0.002 ± 0.001	25.8 ± 0.7	24.5 ± 0.6	2.4	65	0.35	25	4.7	69	2.9	69	3.8	86	Final body weight change (%) [1]: 4.8%; Maximum body weight change (%) [1]: 4.8, d28%; Relative volume RTV (x±S.D.) [1]: 0.38±0.05; T/C (%) [1]: 7.7%; Tumor inhibition rate (%) [1]: 93.4%; Tumor weight (g, x±S.D.) [1]: 0.073 ± 0.016 g; Body weight (g, x±S.D.) End 24d [1]: 23.5 ± 0.6 g; Body weight (g, x±S.D.) Start [1]: 22.5 ± 1.4 g; IC50 [9, 12]: 2.7 nM; IC50 ([9]; βGU-free): 27 nM; IC50 [10, 12]: 3.8 nM; IC50 ([10]; βGU-free): 88 nM; Final body weight change (%) [11]: 8.8%; Maximum body weight change (%) [11]: 8.8, d21%; Relative volume RTV (x±S.D.) [11]: 0.45±0.30; T/C (%) [11]: 3.2%; Tumor inhibition rate (%) [11]: 97.7%; Tumor weight (g, x±S.D.) [11]: 0.041 ± 0.051 g; Body weight (g, x±S.D.) End [11]: 28.3 ± 2.9 g; Body weight (g, x±S.D.) Start [11]: 26.1 ± 2.8 g
CC[C@H](C)[C@@H]([C@@H](CC(=O)N1CCC[C@H]1[C@H](OC)[C@@H](C)C(=O)N[C@H](C)[C@@H](O)c1ccccc1)OC)N(C)C(=O)[C@@H](NC(=O)[C@H](C(C)C)[N+](C)(CC)Cc1ccc(O[C@@H]2O[C@H](C(=O)[O-])[C@@H](O)[C@H](O)[C@H]2O)cc1OCc1cn(CCCOCC(=O)Nc2ccc(-c3ccc(/N=N/c4ccc5c(S(=O)(=O)[O-])cc(S(=O)(=O)[O-])c(N)c5c4O)c(C)c3)cc2C)nn1)C(C)C.[Na+].[Na+] (stereo partly shown) [Example compound 11]	0.4	15	5.7	5.7, d21%	0.19±0.23	1.7	99.3	0.011 ± 0.013	25.7 ± 0.8	24.4 ± 0.9	1.7	77	0.61	21	1.7	64	1.1	55	2.2	63	IC50 [9, 12]: 1.6 nM; IC50 ([9]; βGU-free): 45 nM; IC50 [10, 12]: 3 nM; IC50 ([10]; βGU-free): 66 nM; Final body weight change (%) [11]: 6.7%; Maximum body weight change (%) [11]: 6.7, d21%; Relative volume RTV (x±S.D.) [11]: 0.74±0.51; T/C (%) [11]: 5.2%; Tumor inhibition rate (%) [11]: 96.6%; Tumor weight (g, x±S.D.) [11]: 0.061 ± 0.049 g; Body weight (g, x±S.D.) End [11]: 27.0 ± 2.2 g; Body weight (g, x±S.D.) Start [11]: 25.3 ± 1.6 g
